Measurements as given in PMC4607890, “The identification of novel Mycobacterium tuberculosis DHFR inhibitors and the investigation of their binding preferences by using molecular modelling” (Scientific Reports, 2015).

Tests used:
mt-DHFR = target: T1, mt-DHFR (Mycobacterium tuberculosis, UniProt P9WNX1); assay: biochemical; format: biochemical; conditions: for Ratio h-DHFR/mt-DHFR: ratio of IC50 values; for potency on mt-DHFR compared to h-DHFR: in vitro enzyme assays
T1 construct: made in house
T1 sequence (P9WNX1 whole entry): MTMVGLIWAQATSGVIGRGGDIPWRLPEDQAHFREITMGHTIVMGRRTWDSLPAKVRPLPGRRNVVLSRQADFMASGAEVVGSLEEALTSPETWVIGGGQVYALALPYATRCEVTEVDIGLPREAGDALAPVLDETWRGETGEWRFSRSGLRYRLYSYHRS

h-DHFR = target: T2, h-DHFR (Homo sapiens, UniProt P00374); assay: in vitro enzyme assay, recombinant h-DHFR (NADPH oxidation at 340 nm); format: biochemical; conditions: recombinant enzyme 20 nM, 40 μM NADPH, 40 μM dihydrofolate, pH 7.0, 25 °C
T2 construct: made in house
T2 sequence (P00374 1-187): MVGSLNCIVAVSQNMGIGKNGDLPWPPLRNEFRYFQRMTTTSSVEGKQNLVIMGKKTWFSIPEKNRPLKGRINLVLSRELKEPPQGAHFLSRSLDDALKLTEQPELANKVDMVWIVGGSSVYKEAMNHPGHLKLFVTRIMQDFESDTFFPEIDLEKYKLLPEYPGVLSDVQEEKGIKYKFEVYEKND

[1] = tested on: M. tuberculosis H37Ra (ATCC 25177); assay: Microbroth culture for bacteriostatic and bactericidal activity (OD readings, subculture on 7H10 agar); format: cell-based, Mycobacterium tuberculosis; conditions: Mtb H37Ra; for growth inhibition on the test strain: overall
Experimental: The anti-mycobacterial activity of the compounds was tested by the measurement of OD readings and agar plate cultures. The test strain used was a stock culture of M. tuberculosis H37Ra (ATCC 25177) stored at −80 °C. Prior to testing, the stock culture was thawed and grown on Middlebrook 7H10 agar (Difco, USA) to check for viability and purity. To prepare the inoculum, a suspension of the culture in Middlebrook 7H9 broth (Difco, USA) was adjusted to a turbidity equivalent to McFarland standard no.1 and further diluted to a final concentration of approximately 10^5 cfu/ml. The compounds were dissolved in DMSO and diluted in 1% DMSO in 7H9 broth to obtain 100 μg/ml, 50 μg/ml, 10 μg/ml, 5 μg/ml 1 μg/ml and 0.1 μg/ml of compound. Each dilution was pipetted in 150 μl duplicates into a sterile 96-well microtitre plate. Three controls were set up with (a) 1% DMSO in 7H9 broth (b) 7H9 broth without DMSO and (c) p-amino salicylic acid (PAS) at 4 μg/ml (26.12 μM) in 7H9 broth with 1% DMSO. All wells were then inoculated with 10 μl of the mycobacterial culture at 10^5 cfu/ml, sealed with parafilm and incubated at 36 °C for 28 days. OD readings (at 630 nm wavelength) were taken daily using TECAN spectrophotometer with Magellan software version 7.1. In addition, on day 14 and day 28, 10 μl was removed from each well for subculturing on compound-free 7H10 agar plates which were incubated up to six weeks at 36 °C. The number, size and time of appearance of colonies in each subculture was recorded. A random sample of colonies was stained for acid-fastness to exclude non-mycobacterial contamination. […] Compounds showing less increase in OD readings than the no-compound controls but positive growth in the subcultures were deemed to have bacteriostatic activity.

mt-DHFR against h-DHFR = tested on: mt-DHFR against h-DHFR; parameters: method as in PMID 17451962; conditions: TB5 Saccharomyces cerevisiae carrying DHFR genes; cited from earlier work
[2] = tested on: human DHFR (h-DHFR) and mt-DHFR; conditions: cited from earlier work
[3] = compound concentration 0.1 μg/ml
[4] = compound concentration 10 μg/ml
[5] = compound concentration 50 μg/ml
[6] = compound concentration 100 μg/ml

Row | SMILES | IC50 (mt-DHFR) [nM] | Ratio h-DHFR/mt-DHFR (mt-DHFR) | IC50 (h-DHFR) [nM] | colony counts after four weeks of exposure [1, 3] | colony counts after four weeks of exposure ([1]; compound concentration 1 μg/ml) | colony counts after four weeks of exposure ([1]; compound concentration 5 μg/ml) | colony counts after four weeks of exposure [1, 4] | colony counts after four weeks of exposure [1, 5] | colony counts after four weeks of exposure [1, 6] | also measured
1 | Nc1nc(N)c(-c2cccc(C(F)(F)F)c2)c(Cc2cccc(C(F)(F)F)c2)n1 [Compound 3] | 180 | 0.75 | 135 | +++ | +++ | +++ | +++ | ++ (++, 11–100 colonies) | + (+, 1–10 colonies) | 
2 | Nc1nc(N)c(-c2ccc(Cl)c(Cl)c2)c(COc2cccc3ccccc23)n1 [Compound 2] | 110 | 0.64 | 70 | +++ | +++ | +++ | +++ | ++ (++, 11–100 colonies) | ++ (++, 11–100 colonies) | 
3 | Nc1nc(N)c2c(ccc3c2ccn3Cc2cccc([N+](=O)[O-])c2)n1 [Compound 6] | 6 | 5.5 | 33 | +++ | +++ | +++ | ++ (++, 11–100 colonies) |  |  | inhibition of mt-DHFR (mt-DHFR; in vitro enzyme assay): most potent inhibitor of mt-DHFR; potency on mt-DHFR compared to h-DHFR (mt-DHFR): more potent inhibitors of mt-DHFR compared to h-DHFR; activity compared with PAS (4 μg/ml, 26.12 μM) ([1]; 10 μg/ml (25.37 μM)): same activity as PAS; colony count ([1]; 10 μg/ml (25.37 μM)): notable reduction in colony count; bactericidal activity ([1]; 50 μg/ml): bactericidal; activity compared with PAS (4 μg/ml) ([1]; 100 μg/ml): better activity than PAS; bactericidal activity ([1]; 100 μg/ml): bactericidal activity; growth inhibition on the test strain [1]: strongest bactericidal activity
4 | CC(=O)Nc1cccc(OCc2cccc(N3C(=N)NC(=N)NC3(C)C)c2)c1 [Compound 5] |  |  |  | +++ | +++ | +++ | +++ | +++ | +++ | 
5 | Nc1nc(N)c(-c2ccc(Cl)c(Cl)c2)c(COc2ccc([N+](=O)[O-])cc2)n1 [Compound 1] | 130 | 1 | 130 | +++ | +++ | +++ | +++ | +++ | +++ | 
6 | Nc1nc(N)c2cc(Sc3ccc(Cl)cc3)ccc2n1 [Compound 8] | 40 | 2.5 | 100 | +++ | +++ | +++ | +++ | +++ |  | potency on mt-DHFR compared to h-DHFR (mt-DHFR): more potent inhibitors of mt-DHFR compared to h-DHFR; activity compared with PAS (4 μg/ml) ([1]; 100 μg/ml): better activity than PAS; bactericidal activity ([1]; 100 μg/ml): bactericidal activity; growth in the 14-day subculture ([1]; after exposure to 50 μg/ml): did not grow; growth in the 28-day subculture ([1]; after exposure to 50 μg/ml): formed abundant colonies
7 | Nc1ccc(C(=O)Nc2ccc(OCc3nc(N)nc(N)c3-c3ccc(Cl)cc3)cc2)cc1 [Compound 4] | 2600 | 0.96 | 2500 | +++ | +++ | +++ | +++ | ++ (++, 11–100 colonies) |  | activity compared with PAS (4 μg/ml) ([1]; 100 μg/ml): better activity than PAS; bactericidal activity ([1]; 100 μg/ml): bactericidal activity
8 | Nc1ccc(C(=O)O)c(O)c1 [PAS, p-amino salicylic acid, reference compound] |  |  |  |  |  |  |  |  |  | delay in the appearance of colonies ([1]; PAS 4 μg/ml (26.12 μM)): two-week delay; growth of colonies on 7H10 agar ([1]; PAS 4 μg/ml (26.12 μM)): only scanty growth; reduction in growth ([1]; PAS 4 μg/ml (26.12 μM)): more than two-log reduction in growth; colony counts after four weeks of exposure ([1]; PAS control at 4 μg/ml (26.12 μM)): ++ (++, 11–100 colonies)
9 | Nc1nc(N)c(-c2ccccc2)c(CC[C@@H](O)[C@@H](O)CO)n1 [El-7a] |  |  |  |  |  |  |  |  |  | selectivity for inhibition effects on mt-DHFR against h-DHFR (mt-DHFR against h-DHFR): notable selectivity
10 | Nc1nc(N)c2cc(S(=O)(=O)c3ccc(Cl)cc3)ccc2n1 [Compound 7] | 63 | 6.98 | 440 | +++ | +++ | +++ | +++ | +++ | +++ | potency on mt-DHFR compared to h-DHFR (mt-DHFR): more potent inhibitors of mt-DHFR compared to h-DHFR; growth inhibition on the test strain [1]: least growth inhibition, affecting the colony size but not the colony count
11 | CN(Cc1cnc2nc(N)nc(N)c2n1)c1ccc(C(=O)N[C@@H](CCC(=O)O)C(=O)O)cc1 [MTX, Methotrexate] |  |  |  |  |  |  |  |  |  | selectivity of binding h-DHFR vs mt-DHFR [2]: without any significant selectivity
